“Also recorded” adds a separate entry of the source.
Tests used:
MCF7 cancer cell line = assay: MTT cytotoxicity assay, breast cancer MCF7; type: cell-based; conditions: Homo sapiens, mean ± SD of three experiments
Experimental: (§1) The cytotoxicity of compounds 9a–h and 14a–h against three cell lines, namely, cervical cancer Hela, breast cancer MCF7, and colon HCT-116, compared with doxorubicin as a reference compound was performed using MTT assay. The cytotoxic concentration (IC50 in µM) is illustrated in Table 1.
(§2) Standard MTT colorimetric assay was applied to test the IC50 of compounds 9a–h and 14a–h against three cell lines, namely, cervical cancer Hela, breast cancer MCF7, and colon HCT-116, compared with doxorubicin as a reference compound with the typical reported methodology of MTT colorimetric assay.

HCT-116 cancer cell line = assay: MTT cytotoxicity assay, colon HCT-116; type: cell-based; conditions: Homo sapiens, mean ± SD of three experiments, read-out: IC50 HCT116
Experimental: as §1, §2

Hela cancer cell line = assay: MTT cytotoxicity assay, cervical cancer Hela; type: cell-based; conditions: Homo sapiens, mean ± SD of three experiments
Experimental: as §1, §2

CDK9 = target: T1, CDK9 (Homo sapiens, UniProt P50750); assay: In vitro CDK9 enzyme inhibition assay (BPS Bioscience kit, chemiluminescence); type: biochemical
T1 construct: purchased BPS Bioscience
T1 sequence (P50750 whole entry): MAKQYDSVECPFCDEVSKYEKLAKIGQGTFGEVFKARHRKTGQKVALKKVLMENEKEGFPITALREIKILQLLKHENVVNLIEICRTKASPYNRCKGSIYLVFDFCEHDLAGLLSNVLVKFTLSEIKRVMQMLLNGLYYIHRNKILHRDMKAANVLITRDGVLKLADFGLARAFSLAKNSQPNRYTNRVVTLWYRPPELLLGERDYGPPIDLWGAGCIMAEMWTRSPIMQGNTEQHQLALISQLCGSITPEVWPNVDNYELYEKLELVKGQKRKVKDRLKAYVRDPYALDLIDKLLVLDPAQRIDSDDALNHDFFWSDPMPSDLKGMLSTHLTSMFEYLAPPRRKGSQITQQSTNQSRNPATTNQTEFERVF
T1 sequence (O60563 whole entry partner): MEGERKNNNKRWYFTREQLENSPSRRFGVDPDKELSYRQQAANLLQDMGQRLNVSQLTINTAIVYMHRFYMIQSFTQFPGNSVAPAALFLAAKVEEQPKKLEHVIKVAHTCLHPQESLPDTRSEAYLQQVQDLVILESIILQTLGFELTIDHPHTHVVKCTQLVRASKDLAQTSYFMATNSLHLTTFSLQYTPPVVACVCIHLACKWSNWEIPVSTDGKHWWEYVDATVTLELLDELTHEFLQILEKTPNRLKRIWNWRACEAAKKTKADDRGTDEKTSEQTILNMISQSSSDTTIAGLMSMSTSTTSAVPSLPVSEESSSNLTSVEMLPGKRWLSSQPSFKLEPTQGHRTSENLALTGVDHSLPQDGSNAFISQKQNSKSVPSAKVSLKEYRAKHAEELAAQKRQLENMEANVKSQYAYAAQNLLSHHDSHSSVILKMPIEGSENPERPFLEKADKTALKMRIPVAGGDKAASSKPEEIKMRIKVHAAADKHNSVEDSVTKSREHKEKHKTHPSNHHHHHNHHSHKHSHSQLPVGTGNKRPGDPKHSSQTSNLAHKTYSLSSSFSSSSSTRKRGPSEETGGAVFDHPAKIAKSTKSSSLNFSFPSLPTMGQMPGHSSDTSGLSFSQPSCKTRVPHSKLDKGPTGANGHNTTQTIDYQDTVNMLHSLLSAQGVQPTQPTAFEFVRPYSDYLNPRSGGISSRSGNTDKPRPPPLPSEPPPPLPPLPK
Experimental: (§3) The CDK in vitro inhibitory activity of 9a–h and 14a–h toward CDK2 and CDK9 was performed using CDK Assay Kit (BPS Bioscience, USA) at different dilutions of 30, 10, 3, 1, 0.3, 0.1, 0.03, and 0.01 µM, measuring the chemiluminescence using BioTek™ Synergy2 Microplate Reader (BioTek, Santa Clara, CA, USA).

CDK2 = target: T2, CDK2 (Homo sapiens, UniProt P24941); assay: In vitro CDK2 enzyme inhibition assay (BPS Bioscience kit, chemiluminescence); type: biochemical
T2 construct: purchased BPS Bioscience
Experimental: as §3

Hela cells [1] = assay: Cell cycle analysis (PI flow cytometry), Hela; type: cell-based
Experimental: (§4) Cell cycle arrest of cervical cancer cells Hela, breast cancer cells MCF7, and colon cancer cells HCT-116 were assessed for compounds 9a and 14g at their IC50.

[2] = MTT cytotoxicity on normal cell line WI-38; type: cell-based; conditions: human, WI-38 normal cells, MTT assay, mean ± SD of three experiments, read-out: In Vitro Cytotoxicity on WI-38 (IC50)
Hela cells [3] = assay: Annexin V/PI apoptosis assay, Hela; type: cell-based; conditions: IC50 concentration, 24 h
Experimental: An apoptotic assay using Annexin V/PI analysis for compounds 9a and 14g is evaluated. Compound 9a induced a significant level of early and late apoptosis (total = 42.19) in the Hela cell line when compared with the control cells (Table 3, Figure 5 and Figure 6).

HCT-116 cells [4] = assay: Cell cycle analysis (PI flow cytometry), HCT-116; type: cell-based; conditions: HCT-116, compound at its IC50
Experimental: as §4

HCT-116 cells [5] = assay: Annexin V/PI apoptosis assay, HCT-116; type: cell-based; conditions: HCT-116, IC50 concentration, 24 h
MCF7 cells [6] = assay: Annexin V/PI apoptosis assay, MCF7; type: cell-based; conditions: MCF7, IC50 concentration, 24 h
MCF7 cells [7] = assay: Cell cycle analysis (PI flow cytometry), MCF7; type: cell-based
Experimental: as §4

SMILES	IC50 (MCF7 cancer cell line)	IC50 (HCT-116 cancer cell line)	IC50 (Hela cancer cell line)	melting point	also measured
COc1ccc(-c2nn(-c3ccccc3)c3nccc(-c4ccc([N+](=O)[O-])cc4)c23)cc1 [Compound 9g, 3-(4-Methoxyphenyl)-4-(4-nitrophenyl)-1-phenyl-1H-pyrazolo[3,4-b]pyridine]	26.3 ± 2.85 µM	40 ± 3.19 µM	28.3 ± 4.23 µM	> 300 °C	
COc1ccc(-c2nn(-c3ccccc3)c3nccc(-c4ccc(Br)cc4)c23)cc1 [Compound 9f, 4-(4-Bromophenyl)-3-(4-methoxyphenyl)-1-phenyl-1H-pyrazolo[3,4-b]pyridine]	35.6 ± 4.64 µM	16.8 ± 0.76 µM	20.4 ± 1.74 µM	217 to 219 °C	
COc1ccc(-c2nn(-c3ccccc3)c3nc(-c4ccccc4)c(C#N)c(-c4ccc(Cl)cc4)c23)cc1 [Compound 14d, 4-(4-Chlorophenyl)-3-(4-methoxyphenyl)-1,6-diphenyl-1H-pyrazolo[3,4-b]pyridine-5-carbonitrile]	37.2 ± 2.48 µM	31.1 ± 3.54 µM	21.1 ± 2.03 µM	258 to 260 °C	
COc1ccc(-c2nn(-c3ccccc3)c3nccc(-c4ccccc4)c23)cc1 [Compound 9a, 3-(4-Methoxyphenyl)-1,4-diphenyl-1H-pyrazolo[3,4-b]pyridine]	6.39 ± 0.46 µM	15.3 ± 1.46 µM	2.59 ± 0.16 µM	161 to 163 °C	IC50 (CDK9): 0.262 ± 0.013 µM; IC50 (CDK2): 1.63 ± 0.009 µM; Cell cycle Comment (Hela cells [1]; compound at its IC50): cell cycle arrest at the S phase; also recorded: cell growth arrest@ S; DNA Content %G2/M (Hela cells [1]; compound at its IC50, control 14.5): 11.36%; DNA Content %S (Hela cells [1]; compound at its IC50, control 24.11): 29.54%; DNA Content %G0-G1 (Hela cells [1]; compound at its IC50, control 61.39): 59.1%; cell accumulation at S phase relative to control (Hela cells [1]; control 24.11%): 1.23 fold; IC50 [2]: 26.4 ± 3.23 µM; Apoptosis Late (Hela cells [3]; control 0.12): 12.82%; Apoptosis Early (Hela cells [3]; control 0.49): 23.21%; Necrosis (Hela cells [3]; control 1.72): 6.16%; Apoptosis Total (Hela cells [3]; total equals early + late + necrosis, control 2.33, % printed in Figure 6 only): 42.19%
COc1ccc(-c2nn(-c3ccccc3)c3nc(-c4ccccc4)c(C#N)c(-c4ccc(N(C)C)cc4)c23)cc1 [Compound 14f, 4-(4-(Dimethylamino)phenyl)-3-(4-methoxyphenyl)-1,6-diphenyl-1H-pyrazolo[3,4-b]pyridine-5-carbonitrile]	19.6 ± 1.26 µM	40 ± 4.32 µM	46.1 ± 3.7 µM	230 to 232 °C	
COc1ccc(-c2nn(-c3ccccc3)c3nc(-c4ccccc4)c(C#N)c(-c4ccc(C)cc4)c23)cc1 [Compound 14b, 3-(4-Methoxyphenyl)-1,6-diphenyl-4-(p-tolyl)-1H-pyrazolo[3,4-b]pyridine-5-carbonitrile]	21.4 ± 2.05 µM	36.3 ± 1.83 µM	21 ± 2.18 µM	203 to 205 °C	
COc1ccc(-c2nn(-c3ccccc3)c3nc(-c4ccccc4)c(C#N)c(-c4ccc(Br)cc4)c23)cc1 [Compound 14e, 4-(4-Bromophenyl)-3-(4-methoxyphenyl)-1,6-diphenyl-1H-pyrazolo[3,4-b]pyridine-5-carbonitrile]	34.4 ± 2.59 µM	37.8 ± 2.63 µM	37.3 ± 3.32 µM	221 to 223 °C	
COc1cccc2c1C(=O)c1c(O)c3c(c(O)c1C2=O)C[C@@](O)(C(=O)CO)C[C@@H]3O[C@H]1C[C@H](N)[C@H](O)[C@H](C)O1 [Doxorubicin, reference compound]	4.57 ± 0.28 µM	2.11 ± 0.2 µM	2.35 ± 0.08 µM		IC50 [2]: 15.6 ± 0.37 µM
COc1ccc(-c2nn(-c3ccccc3)c3nccc(-c4ccc(Cl)cc4)c23)cc1 [Compound 9e, 4-(4-Chlorophenyl)-3-(4-methoxyphenyl)-1-phenyl-1H-pyrazolo[3,4-b]pyridine]	20.3 ± 3.21 µM	16.6 ± 1.34 µM	48.5 ± 4.2 µM	210 to 212 °C	
COc1ccc(-c2nn(-c3ccccc3)c3nc(-c4ccccc4)c(C#N)c(-c4ccc(OC)cc4)c23)cc1 [Compound 14c, 3,4-Bis(4-methoxyphenyl)-1,6-diphenyl-1H-pyrazolo[3,4-b]pyridine-5-carbonitrile]	39.3 ± 3.74 µM	36.7 ± 2.02 µM	41.3 ± 2.79 µM	207 to 209 °C	
COc1ccc(-c2nn(-c3ccccc3)c3nccc(-c4ccc(C)cc4)c23)cc1 [Compound 9b, 3-(4-Methoxyphenyl)-1-phenyl-4-(p-tolyl)-1H-pyrazolo[3,4-b]pyridine]	22.4 ± 3.18 µM	18 ± 1.16 µM	14 ± 1.25 µM	186 to 188 °C	
COc1ccc(-c2nn(-c3ccccc3)c3nc(-c4ccccc4)c(C#N)c(-c4ccc(OC)c(OC)c4)c23)cc1 [Compound 14h, 4-(3,4-Dimethoxyphenyl)-3-(4-methoxyphenyl)-1,6-diphenyl-1H-pyrazolo[3,4-b]pyridine-5-carbonitrile]	38.1 ± 2.76 µM	3.69 ± 0.11 µM	31.7 ± 2.48 µM	212 to 214 °C	
COc1ccc(-c2ccnc3c2c(-c2ccc(OC)cc2)nn3-c2ccccc2)cc1 [Compound 9c, 3,4-Bis(4-methoxyphenyl)-1-phenyl-1H-pyrazolo[3,4-b]pyridine]	59 ± 5.52 µM	43.2 ± 3.26 µM	26.6 ± 3.37 µM	198 to 200 °C	
COc1ccc(-c2nn(-c3ccccc3)c3nc(-c4ccccc4)c(C#N)c(-c4ccccc4)c23)cc1 [Compound 14a, 3-(4-Methoxyphenyl)-1,4,6-triphenyl-1H-pyrazolo[3,4-b]pyridine-5-carbonitrile]	20.7 ± 1.73 µM	25.8 ± 2.58 µM	23.1 ± 1.63 µM	229 to 231 °C	
COc1ccc(-c2nn(-c3ccccc3)c3nc(-c4ccccc4)c(C#N)c(-c4ccc(O)cc4)c23)cc1 [Compound 14g, 4-(4-Hydroxyphenyl)-3-(4-methoxyphenyl)-1,6-diphenyl-1H-pyrazolo[3,4-b]pyridine-5-carbonitrile]	4.66 ± 0.38 µM	1.98 ± 0.17 µM	12.7 ± 1.53 µM	295 to 297 °C	IC50 (CDK9): 0.801 ± 0.041 µM; IC50 (CDK2): 0.46 ± 0.024 µM; Cell cycle Comment (HCT-116 cells [4]): arresting cell cycle at S phase; also recorded: cell growth arrest@ S; DNA Content %G2/M (HCT-116 cells [4]; control 17.64): 13.24%; DNA Content %S (HCT-116 cells [4]; control 26.49): 34.82%; DNA Content %G0-G1 (HCT-116 cells [4]; control 55.87): 51.94%; Apoptosis Late (HCT-116 cells [5]; control 0.19): 6.95%; Apoptosis Early (HCT-116 cells [5]; control 0.63): 16.01%; Necrosis (HCT-116 cells [5]; control 1.69): 3.75%; Apoptosis Total (HCT-116 cells [5]; total equals early + late + necrosis, control 2.51): 26.71%; IC50 [2]: 21.8 ± 2.96 µM; Apoptosis Late (MCF7 cells [6]; control 0.27): 7.55%; Apoptosis Early (MCF7 cells [6]; control 0.44): 13.07%; Necrosis (MCF7 cells [6]; control 0.78): 2.27%; Apoptosis Total (MCF7 cells [6]; total equals early + late + necrosis, control 1.49): 22.89%; Cell cycle Comment (MCF7 cells [7]; MCF7, compound at its IC50): arresting cell cycle for MCF7 at G2/M phase; also recorded: cell growth arrest@ G2/M; DNA Content %G2/M (MCF7 cells [7]; MCF7, compound at its IC50, control 14.86): 24.94%; DNA Content %S (MCF7 cells [7]; MCF7, compound at its IC50, control 39.02): 33.81%; DNA Content %G0-G1 (MCF7 cells [7]; MCF7, compound at its IC50, control 46.12): 41.25%; DNA accumulation at G2/M phase relative to control (MCF7 cells [7]; MCF7, control 14.86%): 1.68 fold
COc1ccc(-c2nn(-c3ccccc3)c3nccc(-c4ccc(F)cc4)c23)cc1 [Compound 9d, 4-(4-Fluorophenyl)-3-(4-methoxyphenyl)-1-phenyl-1H-pyrazolo[3,4-b]pyridine]	13 ± 1.33 µM	17.5 ± 0.98 µM	19.6 ± 1.68 µM	171 to 173 °C	
COc1ccc(-c2nn(-c3ccccc3)c3nccc(-c4ccc(OC)c(OC)c4)c23)cc1 [Compound 9h, 4-(3,4-Dimethoxyphenyl)-3-(4-methoxyphenyl)-1-phenyl-1H-pyrazolo[3,4-b]pyridine]	9.7 ± 1 µM	9.69 ± 0.56 µM	7.92 ± 1.11 µM	165 to 167 °C	
